Measured values taken from patent US20070287830A1, “Trisazo Dye, Composition Containing the Same for Anisotropic Dye Film, Anisotropic Dye Film, and Polarizing Element” (Mitsubishi Chemical Corporation, priority 2004, published 2007).

Assays:
[1] = transmission chromaticity and excitation purity of dye aqueous solution under standard illuminant D65; format: physicochemical
Protocol: Here the excitation purity is obtained in such a manner that the chromaticity coordinates N of standard illuminant and the chromaticity coordinates C of the obtained dye in the chromaticity diagram are connected with a straight line, and the wavelength corresponding to the intersection point of the extension of the straight line and the spectrum locus is taken as the dominant wavelength, and the excitation purity is calculated from the proportion at the respective points. The chromaticity coordinate C can be obtained in such a manner that the dye is added to water to obtain a dye aqueous solution, the visible light transmittance of the aqueous solution is measured by a spectrophotometer, and the chromaticities x and y in the CIE 1964 supplementary standard […] system under standard illuminant D65 are calculated.
The excitation purity of the dye in the present invention means one measured and calculated with respect to the dye aqueous solution obtained by adding the dye to water and the excitation purity of the anisotropic dye film means one measured and calculated with respect to a film formed by applying a composition for an anisotropic dye film described hereinafter in detail to a substrate. […]

[2] = degree of polarization of anisotropic dye film formed by wet system film-forming method; format: physicochemical
Description: In the following Examples, the degree of polarization was obtained by measuring the transmittance of an anisotropic dye film by a spectrophotometer having an iodine type polarizing element disposed in an incident optical system, followed by calculation in accordance with the following formula: Degree of polarization (P %)={(Ty−Tz)/(Ty+Tz)}×100
Tz: transmittance of a dye film for a polarized light in the absorption axis direction
Ty: transmittance of a dye film for a polarized light in the polarization axis direction
On the other hand, as a substrate, a glass substrate having a polyimide oriented film formed thereon by silk printing (75 mm×25 mm, thickness 1.1 mm, the polyimide oriented film with a polyimide film thickness of about 800 Å preliminarily subjected to rubbing treatment with cotton cloth) was prepared. […]
The transmittance (Tz) of the obtained anisotropic dye film for a polarized light having a plane of vibration in the absorption axis direction in the plane of the dye film and the transmittance (Ty) for a polarized light having a plane of vibration in the polarization axis direction in the plane of the dye film were measured and shown in FIG. 1. […]

## COc1cc(N=Nc2c(S(=O)(=O)O)cc3ccc(N=Nc4cc(S(=O)(=O)O)c(N)cc4N)cc3c2O)c(OC)cc1N=Nc1ccc(OC)c(S(=O)(=O)O)c1 [dye No. (1-1)]
[1]; C.I.E. chromaticity diagram, 10% (or 5 wt %), 1,000 ppm and 10 ppm
  trail of the chromaticity of the aqueous solution at the respective dye concentrations: passed near the chromaticity (w) of standard illuminant D65
[1]; dye aqueous solution at a concentration of 10%, optical path length 0.01 mm, D65
  excitation purity (pe): 17%
[2]; spin coated on rubbed polyimide/glass, from about 500 nm to about 650 nm
  degree of polarization (P %) (light absorption anisotropy): at least 80%
[2]; vicinity of maximum absorption wavelength, from 550 nm to 600 nm
  degree of polarization (P %): at least 90%
